Results from US20250179059A1 (The Regents of the University of California, priority 2021, published 2025).

How the values were obtained:
[1] = target: T1, human BRD4 bromodomain II (Homo sapiens, UniProt O60885); assay: Bromodomain binding assay (AlphaScreen), BRD4 BDII; details: BRD4 BDII AlphaScreen assay; read-out: BRD4 BD2 IC50
T1 construct: human BRD4 bromodomain II [based on Genbank NM_058243, residues 349-460]; host or cells: E. coli
Outline: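 Inhibition of acetyl-H4 peptide binding to human BRD4 bromodomains is measured by bead-based proximity (AlphaScreen) in pH 7.5 HEPES buffer containing 0.05% CHAPS and 0.1% BSA. Ten compound concentrations in 3-fold steps give competitive binding IC50s.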

[2] = test system: human SKM-1 acute myeloid leukemia cells; assay: SKM-1 antiproliferation cell-based assay (ATPlite)
Outline: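 Log-phase cells in RPMI 1640/15% FBS were seeded at 34722 cells/mL and exposed for 4 days to nine-concentration DMSO serial dilutions in triplicate. Viability was read as ATP luminescence (ATPlite 1step), and IC50 values came from variable-slope non-linear regression.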

[3] = Homo sapiens, SKM-1, SKM-1 antiproliferation assay

Row | Compound | IC50 [1] [nM] | GI50 [2, 3] [nM] | GI50 ([2]; SKM-1 antiproliferation assay) [nM]
1 | COC(=O)OCOc1c(-c2ccc(-n3ccn(C)c3=O)c(Cl)c2)cc(F)cc1-c1cnc(C)c(N2CCN(C(C)C)CC2)c1 [Example 878] | > 100 | 0.3 to 30 | 
2 | COc1ncc(-c2cc(F)cc(-c3ccc(-n4ccn(C)c4=O)c(Cl)c3)c2O)cc1N1CCC2(CCN2C(C)C)C1 (stereo not drawn) [Example 879] | 1 to 10 | 0.3 to 30 | 
3 | Cn1ccn(-c2ccc(-c3cc(F)cc(-c4ccnc(N5CC(F)(F)[C@@](C)(O)C5)c4)c3O)cc2Cl)c1=O [Example 881] | 0.01 to 1 |  | 30 to 300
4 | Cn1ccn(-c2ccc(-c3cc(F)cc(-c4ccnc(N5CC(F)(F)[C@@](C)(O)C5)c4)c3O)cc2Cl)c1=O [Example 882] | 1 to 10 |  | 0.3 to 30
5 | Cc1ncc(-c2cc(F)cc(-c3ccc(-n4ccn(C)c4=O)c(Cl)c3)c2O)cc1N1CC(C)(C)[C@](C)(O)C1 [Example 884] | 1 to 10 | 30 to 300 | 
6 | Cc1ncc(-c2cc(F)cc(-c3ccc(-n4ccn(C)c4=O)c(Cl)c3)c2O)cc1N1CC(C)(C)[C@@](C)(O)C1 [Example 885] | 1 to 10 | 30 to 300 | 
7 | CC(=O)Nc1cnc(-c2cc(F)cc(-c3cccc(N4CCN(C(C)(C)C)CC4)c3)c2O)cn1 [Example 887] | > 100 | 300 to 3000 | 
8 | CC(=O)Nc1cccc(-c2cc(F)cc(-c3cccc(N4CCNCC4)c3)c2O)c1Cl [Example 888] | > 100 | 300 to 3000 | 
9 | Cn1ccn(-c2ccc(-c3cc(F)cc(-c4ccccc4CN4CCNCC4)c3O)cc2Cl)c1=O [Example 889] | > 100 | 300 to 3000 | 
10 | CC(C)N1CCC12CCN(c1cccc(-c3cc(F)cc(-c4ccc(-n5ccn(C)c5=O)c(Cl)c4)c3O)c1)C2 (stereo not drawn) [Example 892] | 1 to 10 | 0.3 to 30 | 
11 | CC(=O)Nc1cccc(-c2cc(F)cc(-c3cccc(N4CCC(C)(O)C4)c3)c2O)c1Cl (stereo not drawn) [Example 893] | > 100 | 300 to 3000 | 
12 | CC(=O)Nc1cnc(-c2cc(F)cc(-c3cccc(N4CCN(C(C)(C)C)CC4)c3)c2O)nc1 [Example 894] | > 100 | 300 to 3000 | 
13 | Cn1ccn(-c2ccc(-c3cc(F)cc(-c4ccnc(N5CCC(C)(NCC(F)(F)F)C5)c4)c3O)cc2Cl)c1=O (stereo not drawn) [Example 895] | 1 to 10 | 30 to 300 | 
14 | CC(=O)Nc1ccc(-c2cc(F)cc(-c3cccc(N4CCN(C(C)(C)C)CC4)c3)c2O)nn1 [Example 896] | > 100 | 300 to 3000 | 
15 | Cc1ncc(-c2cc(F)cc(-c3ccc(-n4ccn(C)c4=O)c(Cl)c3)c2O)cc1N1CC(F)(F)[C@@](C)(O)C1 [Example 897] | 1 to 10 | 30 to 300 | 
16 | Cc1ncc(-c2cc(F)cc(-c3ccc(-n4ccn(C)c4=O)c(Cl)c3)c2O)cc1N1CC(F)(F)[C@](C)(O)C1 [Example 898] | 1 to 10 | 30 to 300 | 
17 | COc1ncc(-c2cc(F)cc(-c3ccc(-n4ccn(C)c4=O)c(Cl)c3)c2O)cc1N1CC(F)(F)[C@@](C)(O)C1 [Example 899] | 1 to 10 | 300 to 3000 | 
18 | COc1ncc(-c2cc(F)cc(-c3ccc(-n4ccn(C)c4=O)c(Cl)c3)c2O)cc1N1CC(F)(F)[C@](C)(O)C1 [Example 900] | 0.01 to 1 | 30 to 300 | 
19 | COc1ncc(-c2cc(F)cc(-c3ccc(-n4ccn(C)c4=O)c(Cl)c3)c2O)cc1N1CC[C@@]2(CCN2C(C)C)C1 [Example 902] | 0.01 to 1 | 0.3 to 30 | 
20 | CC(C)N1[C@H](C)CN(c2cccc(-c3cc(F)cc(-c4ccc(-n5ccn(C)c5=O)c(Cl)c4)c3O)c2)C[C@@H]1C [Example 906, 1-(3-chloro-5′-fluoro-2′-hydroxy-3″-((3R,5S)-4-isopropyl-3,5-dimethylpiperazin-1-yl)-[1,1′:3′,1″-terphenyl]-4-yl)-3-methyl-1H-imidazol-2(3H)-one] | 0.01 to 1 | 0.3 to 30 | 
21 | CC(=O)Nc1ncc(-c2cc(F)cc(-c3cccc(N4CCN(C(C)(C)C)CC4)c3)c2O)cn1 [Example 907, N-(5-(3′-(4-(tert-butyl)piperazin-1-yl)-5-fluoro-2-hydroxy-[1,1′-biphenyl]-3-yl)pyrimidin-2-yl)acetamide] | > 100 | > 3000 | 
22 | CC(=O)Nc1ccc(-c2cc(F)cc(-c3cccc(N4CCN(C(C)(C)C)CC4)c3)c2O)cn1 [Example 908, N-(5-(3′-(4-(tert-butyl)piperazin-1-yl)-5-fluoro-2-hydroxy-[1,1′-biphenyl]-3-yl)pyridin-2-yl)acetamide] | > 100 | > 3000 | 
23 | CC(C)N1CCCC12CCN(c1cccc(-c3cc(F)cc(-c4ccc(-n5ccn(C)c5=O)c(Cl)c4)c3O)c1)C2 (stereo not drawn) [Example 909, 1-(3-chloro-5′-fluoro-2′-hydroxy-3″-(1-isopropyl-1,7-diazaspiro[4.4]nonan-7-yl)-[1,1′:3′,1″-terphenyl]-4-yl)-3-methyl-1H-imidazol-2(3H)-one] | 1 to 10 | 30 to 300 | 

The next lines start with the values.

Row | IC50 [1] [nM] | GI50 [2, 3] [nM] | GI50 ([2]; SKM-1 antiproliferation assay) [nM] | Compound
24 | 0.01 to 1 | 0.3 to 30 |  | COc1ncc(-c2cc(F)cc(-c3ccc(-n4ccn(C)c4=O)c(Cl)c3)c2O)cc1N1CCN(C2CCC2)CC1 [Example 880]
25 | 1 to 10 | 0.3 to 30 |  | Cc1ncc(-c2cc(F)cc(-c3ccc(-n4ccn(C)c4=O)c(Cl)c3)c2O)cc1N1CCN(C2CCC2)CC1 [Example 883]
26 | 1 to 10 | 0.3 to 30 |  | [2H]C([2H])([2H])n1ccn(-c2ccc(-c3cc(F)cc(-c4cccc(N5CCN(C(C)(C)C)CC5)c4)c3O)cc2Cl)c1=O [Example 886]
27 | 1 to 10 | 0.3 to 30 |  | Cc1ncc(-c2cc(F)cc(-c3ccc(-n4ccn(C)c4=O)c(Cl)c3)c2O)cc1N1CCN(C2CCOC2)CC1 (stereo not drawn) [Example 890]
28 | 1 to 10 | 0.3 to 30 |  | Cc1ncc(-c2cc(F)cc(-c3ccc(-n4ccn(C)c4=O)c(Cl)c3)c2O)cc1N1CCC2(CCN2C(C)C)C1 (stereo not drawn) [Example 891]
29 | 0.01 to 1 | 30 to 300 |  | Cn1ccn(-c2ccc(-c3cc(F)cc(-c4cccc(N5CCN(C(C)(C)C)CC5=O)c4)c3O)cc2Cl)c1=O [Example 901]
30 | 0.01 to 1 | 0.3 to 30 |  | COc1ncc(-c2cc(F)cc(-c3ccc(-n4ccn(C)c4=O)c(Cl)c3)c2O)cc1N1CC[C@]2(CCN2C(C)C)C1 [Example 903]
31 | 0.01 to 1 | 30 to 300 |  | Cn1ccn(-c2ccc(-c3cc(F)cc(-c4cc(Cl)c(F)c(N5CCN(C(C)(C)C)CC5)c4)c3O)cc2Cl)c1=O [Example 904]
32 | 1 to 10 | 30 to 300 |  | Cn1ccn(-c2ccc(-c3cc(F)cc(-c4cc(N5CCN(C(C)(C)C)CC5)no4)c3O)cc2Cl)c1=O [Example 905, 1-(3′-(3-(4-(tert-butyl)piperazin-1-yl)isoxazol-5-yl)-3-chloro-5′-fluoro-2′-hydroxy-[1,1′-biphenyl]-4-yl)-3-methyl-1H-imidazol-2(3H)-one]
33 | 10 to 100 | 30 to 300 |  | COc1cc(-c2cc(F)cc(-c3cccc(N4CCN(C(C)(C)C)CC4)c3)c2O)cc(Cl)c1-n1ccn(C)c1=O [Example 910, 1-(3″-(4-(tert-butyl)piperazin-1-yl)-3-chloro-5′-fluoro-2′-hydroxy-5-methoxy-[1,1′:3′,1″-terphenyl]-4-yl)-3-methyl-1H-imidazol-2(3H)-one]
